Test results: EP4692088A1, “COMPOUND ACTING AS WRN HELICASE INHIBITOR” (SHANGHAI JEYOU PHARMACEUTICAL CO., LTD., priority 2023, dated 2024)

target: T1, WRN enzyme (Homo sapiens, UniProt Q14191); assay: biochemical; conditions: not given
T1 construct: host or cells: eukaryotic cells (not further specified)
Procedure: The WRN enzyme used in the experiment has a His-TEV tag at the N-terminus and is expressed in eukaryotic cells with a purity of 90%. The assay kit (ADP-Glo™ Kinase Assay) was purchased from Promega (Cat. No. V9101), aliquoted, and then stored in the refrigerator at -40°C. This kit could quantitatively detect the amount of ADP generated in the reaction. WRN hydrolyzed ATP to produce ADP. The ADP-Glo reagent was added to deplete excess ATP in the reaction system, followed by the addition of Kinase Detection Reagent to convert the ADP produced by the reaction into ATP and produce chemiluminescence. The enzyme activity of WRN can be reflected by detecting the chemiluminescence signal using a microplate reader.
Single-stranded DNA was annealed to form double-stranded DNA. 5× Annealing Buffer: 50 mM Tris pH 8.0, 100 mM NaCl. Annealing program: 95°C, 5 min.
2× WRN enzyme (1 nM) and 2× substrate (1 nM double-stranded DNA, 100 µM ATP) were prepared using a buffer (20 mM Bicine (pH 7.5), 10 mM KCl, 10 mM MgCl2, 0.005% BSG, 0.002% Tween 20, 1 mM TCEP). The test compound was dissolved in DMSO to 10 mM and was gradient-diluted using a 96-well V-bottom plate. First, 25 µL of 2× WRN enzyme and 0.5 µL of compound were added to a 96-well plate and incubated at room temperature for 30 min. Then, 25 µL of 2× substrate was added, and the reaction was carried out at room temperature for 60 min. 5 µL was taken from the reaction plate and transferred to a 384-well plate for detection. 5 µL of ADP-Glo reagent was added and incubated at room temperature for 60 min, followed by the addition of 10 µL of Kinase Detection Reagent and incubation at room temperature for 40 min. The chemiluminescence signal was detected using a microplate reader.

T1 sequence (Q14191 whole entry): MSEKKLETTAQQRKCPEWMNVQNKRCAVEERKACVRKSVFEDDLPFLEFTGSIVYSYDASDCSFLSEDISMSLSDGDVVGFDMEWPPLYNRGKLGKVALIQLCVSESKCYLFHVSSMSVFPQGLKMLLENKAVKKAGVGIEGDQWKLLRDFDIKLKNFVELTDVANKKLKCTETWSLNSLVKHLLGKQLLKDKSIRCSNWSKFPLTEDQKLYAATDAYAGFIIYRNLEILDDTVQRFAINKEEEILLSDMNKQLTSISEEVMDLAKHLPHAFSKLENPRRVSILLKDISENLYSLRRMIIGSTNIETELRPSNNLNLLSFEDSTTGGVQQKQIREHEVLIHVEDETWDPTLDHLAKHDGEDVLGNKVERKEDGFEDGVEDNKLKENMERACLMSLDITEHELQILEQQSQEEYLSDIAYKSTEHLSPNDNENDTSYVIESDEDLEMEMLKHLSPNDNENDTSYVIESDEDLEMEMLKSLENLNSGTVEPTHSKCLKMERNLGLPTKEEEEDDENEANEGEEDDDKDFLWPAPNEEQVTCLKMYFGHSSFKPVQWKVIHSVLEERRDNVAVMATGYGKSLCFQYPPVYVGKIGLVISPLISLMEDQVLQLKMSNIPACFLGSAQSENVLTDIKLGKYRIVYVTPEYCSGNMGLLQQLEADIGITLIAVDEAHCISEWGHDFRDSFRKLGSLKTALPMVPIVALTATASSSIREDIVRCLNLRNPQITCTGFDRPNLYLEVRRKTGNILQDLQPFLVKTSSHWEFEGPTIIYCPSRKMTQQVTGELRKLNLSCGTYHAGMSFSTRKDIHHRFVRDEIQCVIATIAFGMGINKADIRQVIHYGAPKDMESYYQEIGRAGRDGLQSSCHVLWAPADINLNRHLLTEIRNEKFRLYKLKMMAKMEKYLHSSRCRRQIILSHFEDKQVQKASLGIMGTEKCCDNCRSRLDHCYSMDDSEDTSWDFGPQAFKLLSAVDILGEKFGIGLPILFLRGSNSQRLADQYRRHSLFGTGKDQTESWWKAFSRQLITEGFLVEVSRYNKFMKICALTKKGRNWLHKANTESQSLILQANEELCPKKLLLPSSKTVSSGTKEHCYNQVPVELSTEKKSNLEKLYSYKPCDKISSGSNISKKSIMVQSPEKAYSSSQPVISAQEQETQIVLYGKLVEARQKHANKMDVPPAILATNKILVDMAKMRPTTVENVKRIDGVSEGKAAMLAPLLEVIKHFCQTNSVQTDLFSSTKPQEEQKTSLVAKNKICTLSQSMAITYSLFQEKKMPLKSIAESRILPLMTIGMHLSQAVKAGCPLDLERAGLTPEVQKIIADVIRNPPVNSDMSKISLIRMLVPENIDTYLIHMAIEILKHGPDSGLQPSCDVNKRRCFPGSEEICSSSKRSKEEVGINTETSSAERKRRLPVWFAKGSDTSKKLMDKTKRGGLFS

Compound | IC50 [nM]
CCc1c(N2CCN(C(=O)c3ncccc3O)CC2)c(=O)c2nn(C3=CCOCC3)cc2n1CC(=O)Nc1ccc(C(F)(F)F)cc1Cl [Example 6] | 134
CCc1c(N2CCN(C(=O)c3ncnc(C)c3O)CC2)c(=O)c2nn(C3=CCOCC3)nc2n1CC(=O)Nc1ccc(C(F)(F)F)cc1C [Example 8] | 118
CCc1c(C2=CCN(C(=O)c3ncnc(C)c3O)CC2)c(=O)c2cn(C3=CCOCC3)nc2n1CC(=O)Nc1ccc(C(F)(F)F)cc1Cl [Example 10] | 238
CCc1c(N2CCN(C(=O)c3ncnc(C)c3O)CC2)c(=O)c2nn(C3=CCOCC3)cc2n1CC(=O)Nc1ccc(S(F)(F)(F)(F)F)cc1 [Example 12] | 86
CCc1c(N2CCN(C(=O)c3ncnc(C)c3O)CC2)c(=O)c2nn(C3=CCOCC3)nc2n1CC(=O)Nc1ncc(C(F)(F)F)cc1Cl [Example 13] | 104
CCc1c(N2CCN(C(=O)c3ncnc(C)c3O)CC2)c(=O)c2nn(C3=CCOCC3)nc2n1CC(=O)Nc1cc(Cl)c(C(F)(F)F)cc1C [Example 14] | 30.8
CCc1c(N2CCN(C(=O)c3ncnc(C)c3O)CC2)c(=O)c2nn(C3=CCOCC3)nc2n1CC(=O)Nc1ccc2c(c1)CC2 [Example 16] | 42.6
CCc1c(N2CCN(C(=O)c3ncnc(C)c3O)CC2)c(=O)c2nn(C3=CCOCC3)nc2n1CC(=O)Nc1ccc2c(c1)CCC2 [Example 17] | 34.7
CCc1c(N2CCN(C(=O)c3ncncc3O)CC2)c(=O)c2nn(C3=CCOCC3)nc2n1CC(=O)Nc1ccc(C(F)(F)F)cc1Cl [Example 18] | 64.3
CCc1c(N2CCN(C(=O)c3ncccc3O)CC2)c(=O)c2nn(C3=CCOCC3)nc2n1CC(=O)Nc1cc(F)c(C(F)(F)F)cc1Cl [Example 19] | 44.3
CCc1c(N2CCN(C(=O)c3ncccc3O)CC2)c(=O)c2nn(C3=CCOCC3)nc2n1CC(=O)Nc1ccc(C(F)(F)F)cc1Cl [Example 20] | 35.5
CCc1c(N2CCN(C(=O)c3ncnc(C)c3O)CC2)c(=O)c2nn(C3=CCOCC3)nc2n1CC(=O)Nc1cc(F)c(C(F)(F)F)cc1F [Example 23] | 41.9

same assay, conditions: read-out: WRN helicase activity (IC50 nM)

IC50 [nM] | Compound
94.9 | CCc1c(N2CCN(C(=O)c3ncnc(C)c3O)CC2)c(=O)c2nn(C3=CCOCC3)nc2n1CC(=O)Nc1ccc(C(F)(F)F)cc1F [Example 9]
65.3 | CCc1c(N2CCN(C(=O)c3ncnc(C)c3O)CC2)c(=O)c2nn(C3=CCN(S(=O)(=O)C4CC4)CC3)cc2n1CC(=O)Nc1ccc(C(F)(F)F)cc1Cl [Example 11]
24.4 | CCc1c(N2CCN(C(=O)c3ncnc(C)c3O)CC2)c(=O)c2nn(C3=CCOCC3)nc2n1CC(=O)Nc1ccc(S(F)(F)(F)(F)F)cc1 [Example 21]

system: HCT116 cells; assay: Cell proliferation assay (CellTiter-Glo), HCT116; type: cell-based; conditions: Homo sapiens, 120 h, HCT-116, 5 days incubation
Procedure: (§1) SW48 cells were plated at a density of 1,500 cells/well, and LoVo, HCT116, and SW620 cells were plated at a density of 800 cells/well in a 96-well cell culture plate, and cultured in a 37°C incubator overnight. The test compounds, which were gradient-diluted with DMSO, were added, and after incubation for 5 days, cell viability was detected using a CellTiter-Glo kit. The CellTiter-Glo reagent was equilibrated to room temperature, and an appropriate amount was added to the cell plate, followed by shaking at room temperature for 12 min. The luminescence signal was detected using a microplate reader.
(§2) The luminescence signal values of the DMSO-treated wells and cell-free wells were used as negative and positive controls, respectively, to calculate the inhibition rate of compound on cell proliferation. The concentration-inhibition curve was fitted using the "log(inhibitor) vs. normalized response -- Variable slope" equation in GraphPad Prism 8 software to obtain the IC50. [formula]

Compound | IC50 [nM]
CCc1c(N2CCN(C(=O)c3ncnc(C)c3O)CC2)c(=O)c2nn(C3=CCOCC3)cc2n1CC(=O)Nc1ccc(C(F)(F)F)cc1Cl [Example 5] | 1580
CCc1c(C2=CCN(C(=O)c3ncnc(C)c3O)CC2)c(=O)c2cn(C3=CCOCC3)nc2n1CC(=O)Nc1ccc(C(F)(F)F)cc1Cl [Example 10] | 552
CCc1c(N2CCN(C(=O)c3ncnc(C)c3O)CC2)c(=O)c2nn(C3=CCOCC3)nc2n1CC(=O)Nc1ncc(C(F)(F)F)cc1Cl [Example 13] | 435

system: SW48 cells; assay: Cell proliferation assay (CellTiter-Glo), SW48; type: cell-based; conditions: Homo sapiens, SW48, 120 h, SW-48, 5 days incubation
Procedure: as §1, §2

Compound | IC50 [nM]
CCc1c(N2CCN(C(=O)c3ncnc(C)c3O)CC2)c(=O)c2nn(C3=CCOCC3)cc2n1CC(=O)Nc1ccc(C(F)(F)F)cc1Cl [Example 5] | 943
CCc1c(N2CCN(C(=O)c3ncccc3O)CC2)c(=O)c2nn(C3=CCOCC3)cc2n1CC(=O)Nc1ccc(C(F)(F)F)cc1Cl [Example 6] | 324
CCc1c(N2CCN(C(=O)c3ncnc(C)c3O)CC2)c(=O)c2nn(C3=CCOCC3)nc2n1CC(=O)Nc1ccc(C(F)(F)F)cc1C [Example 8] | 133
CCc1c(C2=CCN(C(=O)c3ncnc(C)c3O)CC2)c(=O)c2cn(C3=CCOCC3)nc2n1CC(=O)Nc1ccc(C(F)(F)F)cc1Cl [Example 10] | 331
CCc1c(N2CCN(C(=O)c3ncnc(C)c3O)CC2)c(=O)c2nn(C3=CCOCC3)cc2n1CC(=O)Nc1ccc(S(F)(F)(F)(F)F)cc1 [Example 12] | 317
CCc1c(N2CCN(C(=O)c3ncnc(C)c3O)CC2)c(=O)c2nn(C3=CCOCC3)nc2n1CC(=O)Nc1cc(Cl)c(C(F)(F)F)cc1C [Example 14] | 42.4
CCc1c(N2CCN(C(=O)c3ncnc(C)c3O)CC2)c(=O)c2nn(C3=CCOCC3)nc2n1CC(=O)Nc1ccc2c(c1)CC2 [Example 16] | 148
CCc1c(N2CCN(C(=O)c3ncnc(C)c3O)CC2)c(=O)c2nn(C3=CCOCC3)nc2n1CC(=O)Nc1ccc2c(c1)CCC2 [Example 17] | 126
CCc1c(N2CCN(C(=O)c3ncncc3O)CC2)c(=O)c2nn(C3=CCOCC3)nc2n1CC(=O)Nc1ccc(C(F)(F)F)cc1Cl [Example 18] | 51.1
CCc1c(N2CCN(C(=O)c3ncccc3O)CC2)c(=O)c2nn(C3=CCOCC3)nc2n1CC(=O)Nc1cc(F)c(C(F)(F)F)cc1Cl [Example 19] | 60.9
CCc1c(N2CCN(C(=O)c3ncccc3O)CC2)c(=O)c2nn(C3=CCOCC3)nc2n1CC(=O)Nc1ccc(C(F)(F)F)cc1Cl [Example 20] | 33.8
CCc1c(N2CCN(C(=O)c3ncnc(C)c3O)CC2)c(=O)c2nn(C3=CCOCC3)nc2n1CC(=O)Nc1cc(F)c(C(F)(F)F)cc1F [Example 23] | 102

system: LoVo; assay: Cell proliferation assay (CellTiter-Glo), LoVo; type: cell-based; conditions: Homo sapiens, 120 h, 5 days incubation
Procedure: as §1, §2

Compound | IC50 [nM]
CCc1c(N2CCN(C(=O)c3ncnc(C)c3O)CC2)c(=O)c2nn(C3=CCOCC3)cc2n1CC(=O)Nc1ccc(C(F)(F)F)cc1Cl [Example 5] | 2710
CCc1c(C2=CCN(C(=O)c3ncnc(C)c3O)CC2)c(=O)c2cn(C3=CCOCC3)nc2n1CC(=O)Nc1ccc(C(F)(F)F)cc1Cl [Example 10] | 871

system: SW620 cells; assay: Cell proliferation assay (CellTiter-Glo), SW620; type: cell-based; conditions: Homo sapiens, 120 h, SW-620 (MSS), 5 days incubation
Procedure: as §1, §2

Compound | IC50 [nM]
CCc1c(N2CCN(C(=O)c3ncnc(C)c3O)CC2)c(=O)c2nn(C3=CCOCC3)cc2n1CC(=O)Nc1ccc(C(F)(F)F)cc1Cl [Example 5] | > 25000
CCc1c(N2CCN(C(=O)c3ncccc3O)CC2)c(=O)c2nn(C3=CCOCC3)cc2n1CC(=O)Nc1ccc(C(F)(F)F)cc1Cl [Example 6] | > 25000
CCc1c(N2CCN(C(=O)c3ncnc(C)c3O)CC2)c(=O)c2nn(C3=CCOCC3)nc2n1CC(=O)Nc1ccc(C(F)(F)F)cc1C [Example 8] | > 25000
CCc1c(C2=CCN(C(=O)c3ncnc(C)c3O)CC2)c(=O)c2cn(C3=CCOCC3)nc2n1CC(=O)Nc1ccc(C(F)(F)F)cc1Cl [Example 10] | > 25000
CCc1c(N2CCN(C(=O)c3ncnc(C)c3O)CC2)c(=O)c2nn(C3=CCOCC3)cc2n1CC(=O)Nc1ccc(S(F)(F)(F)(F)F)cc1 [Example 12] | > 25000
CCc1c(N2CCN(C(=O)c3ncnc(C)c3O)CC2)c(=O)c2nn(C3=CCOCC3)nc2n1CC(=O)Nc1ncc(C(F)(F)F)cc1Cl [Example 13] | > 25000
CCc1c(N2CCN(C(=O)c3ncnc(C)c3O)CC2)c(=O)c2nn(C3=CCOCC3)nc2n1CC(=O)Nc1cc(Cl)c(C(F)(F)F)cc1C [Example 14] | > 25000
CCc1c(N2CCN(C(=O)c3ncnc(C)c3O)CC2)c(=O)c2nn(C3=CCOCC3)nc2n1CC(=O)Nc1ccc2c(c1)CC2 [Example 16] | > 25000
CCc1c(N2CCN(C(=O)c3ncnc(C)c3O)CC2)c(=O)c2nn(C3=CCOCC3)nc2n1CC(=O)Nc1ccc2c(c1)CCC2 [Example 17] | > 25000
CCc1c(N2CCN(C(=O)c3ncncc3O)CC2)c(=O)c2nn(C3=CCOCC3)nc2n1CC(=O)Nc1ccc(C(F)(F)F)cc1Cl [Example 18] | > 25000
CCc1c(N2CCN(C(=O)c3ncccc3O)CC2)c(=O)c2nn(C3=CCOCC3)nc2n1CC(=O)Nc1cc(F)c(C(F)(F)F)cc1Cl [Example 19] | 20700
CCc1c(N2CCN(C(=O)c3ncccc3O)CC2)c(=O)c2nn(C3=CCOCC3)nc2n1CC(=O)Nc1ccc(C(F)(F)F)cc1Cl [Example 20] | 23700
CCc1c(N2CCN(C(=O)c3ncnc(C)c3O)CC2)c(=O)c2nn(C3=CCOCC3)nc2n1CC(=O)Nc1cc(F)c(C(F)(F)F)cc1F [Example 23] | > 25000
